The values that follow come from patent US11254663B2 (BRISTOL-MYERS SQUIBB COMPANY, priority 2019, dated 2022).

Each structure is given as a SMILES string. Like-named read-outs stand apart in the source and are kept apart here.

For this experiment, the target named is FXR (Homo sapiens (Human), UniProt Q96RI1). Briefly: transient human FXR/Gal4-luciferase reporter assay. It is filed as cell-based. In short, it runs like this: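 Compound exposure ran overnight at 37 °C and activity was measured as luminescence with Steady-Glo reagent. The cells were a HEK293 line stably expressing firefly luciferase under five Gal4 response elements. They were transiently transfected, one night beforehand, with a plasmid encoding Gal4 DNA-binding domain fused to the human FXR ligand-binding domain.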
Chain of FXR (Q96RI1 262-486): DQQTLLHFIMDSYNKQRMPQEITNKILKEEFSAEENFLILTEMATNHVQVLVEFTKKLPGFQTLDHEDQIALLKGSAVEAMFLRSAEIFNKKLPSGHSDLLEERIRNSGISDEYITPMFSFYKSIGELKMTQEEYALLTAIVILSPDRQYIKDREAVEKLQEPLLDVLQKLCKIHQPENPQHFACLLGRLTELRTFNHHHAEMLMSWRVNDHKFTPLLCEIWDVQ
On the technique in general: In a reporter assay the amount or activity of a reporter protein is the signal.

Where [1] appears, read: Gal4-hFXR fusion construct, HEK293 reporter cells, response relative to 8 μM GW-4064.

The EC50 is the concentration that produces a half-maximal response. Low values mean greater potency, high ones weaker potency.

In turn, `CCc1cnc(-c2ccnc(N(CC34CCC(c5noc(C(C)(C)C)n5)(CC3)CC4)C(=O)C34CC(F)(C3)C4)c2)nc1` [Example 543, N-((4-(5-(tert-butyl)-1,2,4-oxadiazol-3-yl)bicyclo[2.2.2]octan-1-yl)methyl)-N-(4-(5-ethylpyrimidin-2-yl)pyridin-2-yl)-3-fluorobicyclo[1.1.1]pentane-1-carboxamide] showed a concentration for a half-maximal effect (EC50) of 14 nM. Turning to `CC(C)c1noc(C23CCC(CN(C(=O)C45CC(F)(C4)C5)c4cccc(-c5ccc6c(c5)OC(F)(F)O6)c4)(CC2)CC3)n1` [Example 386, N-(3-(2,2-difluorobenzo[d][1,3]dioxol-5-yl)phenyl)-3-fluoro-N-((4-(3-isopropyl-1,2,4-oxadiazol-5-yl)bicyclo[2.2.2]octan-1-yl)methyl)bicyclo[1.1.1]pentane-1-carboxamide], a half-maximal response under setting [1] (EC50) required 274 nM. In other words, the sub-micromolar range. Take `CCOc1ncc(-c2cccc(N(CC34CCC(c5noc(C6(C)COC6)n5)(CC3)CC4)C(=O)[C@H]3C[C@@](C)(O)C3)c2)cn1` [Example 519, (1S,3S)—N-(3-(2-ethoxypyrimidin-5-yl)phenyl)-3-hydroxy-3-methyl-N-((4-(5-(3-methyloxetan-3-yl)-1,2,4-oxadiazol-3-yl)bicyclo[2.2.2]octan-1-yl)methyl)cyclobutane-1-carboxamide]: the response was half-maximal at 504 nM (EC50). On the same count and under the same terms, the figure for `CC(C)(C)c1nc(C23CCC(CN(C(=O)C45CC(F)(C4)C5)c4cc(-c5ccc(OC(F)F)cc5)ccn4)(CC2)CC3)no1` [Example 533, N-((4-(5-(tert-butyl)-1,2,4-oxadiazol-3-yl)bicyclo[2.2.2]octan-1-yl)methyl)-N-(4-(4-(difluoromethoxy)phenyl)pyridin-2-yl)-3-fluorobicyclo[1.1.1]pentane-1-carboxamide] is 26 nM; for `CC(C)(C)c1nc(C23CCC(CN(C(=O)C45CC(F)(C4)C5)c4cncc(-c5cnc6nc(C7CC7)sc6c5)c4)(CC2)CC3)no1` [Example 480, N-((4-(5-(tert-butyl)-1,2,4-oxadiazol-3-yl)bicyclo[2.2.2]octan-1-yl)methyl)-N-(5-(2-cyclopropylthiazolo[4,5-b]pyridin-6-yl)pyridin-3-yl)-3-fluorobicyclo[1.1.1]pentane-1-carboxamide] it is 988 nM. Molecule `CC(F)(F)c1nc(C23CCC(CN(C(=O)C4CC(O)(C(F)(F)F)C4)c4cccc(-c5ccc(C(O)C(F)F)cc5)c4)(CC2)CC3)no1` (single isomer, unassigned) [Example 628 (second eluting isomer)] displayed a half-maximal effective concentration (EC50) under setting [1] of 128 nM. On the same count and under the same terms, the figure for `CCOc1ccc(-c2cncc(N(CC34CCC(c5nc(C6CC6)no5)(CC3)CC4)C(=O)C34CC(F)(C3)C4)c2)cc1` [Example 424, N-((4-(3-cyclopropyl-1,2,4-oxadiazol-5-yl)bicyclo[2.2.2]octan-1-yl)methyl)-N-(5-(4-ethoxyphenyl)pyridin-3-yl)-3-fluorobicyclo[1.1.1]pentane-1-carboxamide] is 483 nM; for `CC(C)(O)c1ccc(-c2cccc(N(CC34CCC(c5noc(C(C)(C)F)n5)(CC3)CC4)C(=O)[C@H]3C[C@](O)(C(F)(F)F)C3)n2)cc1` [Example 595, (cis)-N-((4-(5-(2-fluoropropan-2-yl)-1,2,4-oxadiazol-3-yl)bicyclo[2.2.2]octan-1-yl)methyl)-3-hydroxy-N-(6-(4-(2-hydroxypropan-2-yl)phenyl)pyridin-2-yl)-3-(trifluoromethyl)cyclobutane-1-carboxamide] it is 64 nM; for `CC(C)(C#N)OC(=O)N(CC12CCC(c3noc(C(C)(C)F)n3)(CC1)CC2)c1cccc(-c2ccc(C(C)(C)O)cc2)c1` [Example 598, 2-cyanopropan-2-yl ((4-(5-(2-fluoropropan-2-yl)-1,2,4-oxadiazol-3-yl)bicyclo[2.2.2]octan-1-yl)methyl)(4′-(2-hydroxypropan-2-yl)-[1,1′-biphenyl]-3-yl) carbamate] it is 29 nM. Still for that read-out and setting: the figure for `CC(C)(C)c1noc(C23CCC(CN(C(=O)C45CC(F)(C4)C5)c4cccc(-c5cnc(C6CC6)nc5)c4)(CC2)CC3)n1` [Example 358, N-((4-(3-(tert-butyl)-1,2,4-oxadiazol-5-yl)bicyclo[2.2.2]octan-1-yl)methyl)-N-(3-(2-cyclopropylpyrimidin-5-yl)phenyl)-3-fluorobicyclo[1.1.1]pentane-1-carboxamide] is 154 nM; for `CC(C)(C#N)Oc1ccc(-c2ccnc(N(CC34CCC(c5nc(C6CC6)no5)(CC3)CC4)C(=O)OC(C)(C)C(F)(F)F)c2)cc1` [Example 622, 1,1,1-trifluoro-2-methylpropan-2-yl(4-(4-((2-cyanopropan-2-yl)oxy)phenyl)pyridin-2-yl) ((4-(3-cyclopropyl-1,2,4-oxadiazol-5-yl)bicyclo[2.2.2]octan-1-yl)methyl)carbamate] it is 34 nM; for `O=C(N(CC12CCC(c3nc(C4CC4)no3)(CC1)CC2)c1cccc(-c2cnc(C(F)(F)F)nc2)c1)C12CC(F)(C1)C2` [Example 262, N-((4-(3-cyclopropyl-1,2,4-oxadiazol-5-yl)bicyclo[2.2.2]octan-1-yl)methyl)-3-fluoro-N-(3-(2-(trifluoromethyl)pyrimidin-5-yl)phenyl)bicyclo[1.1.1]pentane-1-carboxamide] it is 140 nM. Regarding `CCOc1ncc(-c2cccc(N(CC34CCC(c5cnc(C(F)(F)F)nc5)(CC3)OC4)C(=O)C34CC(F)(C3)C4)c2)cn1` [Example 418, N-(3-(2-ethoxypyrimidin-5-yl)phenyl)-3-fluoro-N-((1-(2-(trifluoromethyl)pyrimidin-5-yl)-2-oxabicyclo[2.2.2]octan-4-yl)methyl)bicyclo[1.1.1]pentane-1-carboxamide], under setting [1], the response was half-maximal at 2040 nM (EC50). Under setting [1], `O=C(N(CC12CCC(c3noc(C4(F)CC4)n3)(CC1)CC2)c1cccc(-c2cnc(C3CC3)nc2)c1)C12CC(F)(C1)C2` [Example 579, N-(3-(2-cyclopropylpyrimidin-5-yl)phenyl)-3-fluoro-N-((4-(5-(1-fluorocyclopropyl)-1,2,4-oxadiazol-3-yl)bicyclo[2.2.2]octan-1-yl)methyl)bicyclo[1.1.1]pentane-1-carboxamide] had a concentration giving a half-maximal response (EC50) of 45 nM.

As to `COc1ccc(-c2cccc(N(CC34CCC(c5nc(C(C)C)no5)(CC3)CC4)C(=O)C34CC(F)(C3)C4)c2)cc1` [Example 377, 3-fluoro-N-((4-(3-isopropyl-1,2,4-oxadiazol-5-yl)bicyclo[2.2.2]octan-1-yl)methyl)-N-(4′-methoxy-[1,1′-biphenyl]-3-yl)bicyclo[1.1.1]pentane-1-carboxamide], the EC50 under setting [1] turned out to be 52 nM. On to `CCOc1ccc(-c2cncc(N(CC34CCC(c5nc(C(C)(C)C)no5)(CC3)CC4)C(=O)C34CC(F)(C3)C4)c2)cn1` [Example 477, N-((4-(3-(tert-butyl)-1,2,4-oxadiazol-5-yl)bicyclo[2.2.2]octan-1-yl)methyl)-N-(6′-ethoxy-[3,3′-bipyridin]-5-yl)-3-fluorobicyclo[1.1.1]pentane-1-carboxamide], for which the EC50 is 485 nM. This counts as sub-micromolar. In the case of `CC(C)(O)C12CCC(c3ccnc(N(CC45CCC(c6nc(C7CC7)no6)(CC4)CC5)C(=O)OC(C)(C)C(F)(F)F)n3)(CC1)CC2` [Example 666, 1,1,1-trifluoro-2-methylpropan-2-yl ((4-(3-cyclopropyl-1,2,4-oxadiazol-5-yl)bicyclo[2.2.2]octan-1-yl)methyl)(4-(4-(2-hydroxypropan-2-yl)bicyclo[2.2.2]octan-1-yl)pyrimidin-2-yl)carbamate], under setting [1], the concentration giving a half-maximal response (EC50) worked out at 496 nM.
